Test results published in patent publication US10329289B2, “6,7-dihydro-5H-pyrrolo[3,4-B]pyridin-5-one allosteric modulators of the M4 muscarinic acetylcholine receptor” (Merck Sharp & Dohme Corp., priority 2015, dated 2019).

Molecular target: T1, human M4 muscarinic acetylcholine receptor (Homo sapiens, UniProt P08173)
T1 construct: expressed in transfected cells; host or cells: CHO-K1
T1 sequence (P08173 1-479): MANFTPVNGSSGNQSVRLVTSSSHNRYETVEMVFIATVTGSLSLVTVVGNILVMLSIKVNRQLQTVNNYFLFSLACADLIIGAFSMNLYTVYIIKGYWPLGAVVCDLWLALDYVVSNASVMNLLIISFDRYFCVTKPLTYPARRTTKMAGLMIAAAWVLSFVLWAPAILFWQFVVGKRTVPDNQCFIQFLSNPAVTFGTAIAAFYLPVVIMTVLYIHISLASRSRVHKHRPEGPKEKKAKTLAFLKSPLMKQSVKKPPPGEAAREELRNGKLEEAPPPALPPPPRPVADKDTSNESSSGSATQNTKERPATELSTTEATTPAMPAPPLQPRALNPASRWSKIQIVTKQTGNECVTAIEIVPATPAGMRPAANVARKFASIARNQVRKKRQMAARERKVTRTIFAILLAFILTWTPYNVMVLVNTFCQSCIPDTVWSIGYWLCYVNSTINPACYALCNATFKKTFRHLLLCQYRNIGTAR
Experiment: human FLIPR-based M4 PAM assay (Ca2+ mobilization, CHO-K1 cells with human M4 receptor and Gαqi5)
Type: cell-based
Conditions: acetylcholine at 20% of maximum response, read-out: M4 PAM IP
How it was run: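 CHO-K1 cells stably expressing human M4 and chimeric Gαqi5 were dye-loaded ~1 h at 37 °C and read for Ca2+ fluorescence. Compound followed by acetylcholine at an EC20 (sometimes an EC70 third addition); inflection point from a 4-parameter logistic fit.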

Compound | EC50
COC(=O)CN1Cc2nc(N3CCC(OCC4(C)CC4)CC3)c(C)c(C)c2C1=O [Example 256, methyl 2-(3,4-dimethyl-2-(4-((1-methylcyclopropyl)methoxy)piperidin-1-yl)-5-oxo-5,7-dihydro-6H-pyrrolo[3,4-b]pyridin-6-yl)acetate] | 85 nM
Cc1cc2c(nc1N1CC[C@@H](Oc3ccc4c(c3)COC4)[C@H](F)C1)CN(CCO)C2=O [Example 257, 2-((3R,4R)-4-((1,3-dihydro-2-benzofuran-5-yl)oxy)-3-fluoropiperidin-1-yl)-6-(2-hydroxyethyl)-3-methyl-6,7-dihydro-5H-pyrrolo[3,4-b]pyridin-5-one] | 84 nM
CCc1cc2c(nc1N1CCC(Oc3ccc4c(c3)COC4)CC1)CN(CCO)C2=O [Example 258, 2-(4-((1,3-dihydro-2-benzofuran-5-yl)oxy)piperidin-1-yl)-3-ethyl-6-(2-hydroxyethyl)-6,7-dihydro-5H-pyrrolo[3,4-b]pyridin-5-one] | 126 nM
COc1ccc(OC2CCN(c3nc4c(cc3C)C(=O)N(Cc3ccncc3)C4)CC2)cn1 [Example 259, 2-(4-((6-methoxypyridin-3-yl)oxy)piperidin-1-yl)-3-methyl-6-(pyridin-4-ylmethyl)-6,7-dihydro-5H-pyrrolo[3,4-b]pyridin-5-one] | 87 nM
Cc1c(N2CCC(OCC3(C)CC3(F)F)CC2)nc2c(c1C)C(=O)N(CCO)C2 (stereo not shown) [Example 259A, 2-(4-((2,2-difluoro-1-methylcyclopropyl)methoxy)piperidin-1-yl)-6-(2-hydroxyethyl)-3,4-dimethyl-6,7-dihydro-5H-pyrrolo[3,4-b]pyridin-5-one] | 117 nM
COC(=O)CN1Cc2nc(N3CCC(Oc4ccc(OC)nc4)CC3)c(C)cc2C1=O [Example 260, methyl 2-(2-(4-((6-methoxypyridin-3-yl)oxy)piperidin-1-yl)-3-methyl-5-oxo-5,7-dihydro-6H-pyrrolo[3,4-b]pyridin-6-yl)acetate] | 141 nM
COCCN1Cc2nc(N3CCC(Oc4ccc5c(c4)COC5)CC3)c(C)c(C)c2C1=O [Example 260A, 2-(4-((1,3-dihydro-2-benzofuran-5-yl)oxy)piperidin-1-yl)-6-(2-methoxyethyl)-3,4-dimethyl-6,7-dihydro-5H-pyrrolo[3,4-b]pyridin-5-one] | 43 nM
Cc1c(N2CC[C@@H](Oc3ccc4c(c3)COC4)[C@@H](F)C2)nc2c(c1C)C(=O)N(CCO)C2 [Example 261, 2-((3S,4R)-4-((1,3-dihydro-2-benzofuran-5-yl)oxy)-3-fluoropiperidin-1-yl)-6-(2-hydroxyethyl)-3,4-dimethyl-6,7-dihydro-5H-pyrrolo[3,4-b]pyridin-5-one] | 39 nM
Cc1cc2c(nc1N1CC[C@@H](Oc3ccc(F)cc3)[C@@H](F)C1)CN(CCO)C2=O [Example 262, 2-((3S,4R)-3-fluoro-4-(4-fluorophenoxy)piperidin-1-yl)-6-(2-hydroxyethyl)-3-methyl-6,7-dihydro-5H-pyrrolo[3,4-b]pyridin-5-one] | 43 nM
Cc1cc2c(nc1N1CCC(Oc3ccc4c(c3)COC4)CC1)CN(CCO)C2=O [Example 263, 2-(4-((1,3-dihydro-2-benzofuran-5-yl)oxy)piperidin-1-yl)-6-(2-hydroxyethyl)-3-methyl-6,7-dihydro-5H-pyrrolo[3,4-b]pyridin-5-one] | 57 nM
COCCN1Cc2nc(N3CCC(Oc4ccc5c(c4)COC5)CC3)c(C)cc2C1=O [Example 263A, 2-(4-((1,3-dihydro-2-benzofuran-5-yl)oxy)piperidin-1-yl)-6-(2-methoxyethyl)-3-methyl-6,7-dihydro-5H-pyrrolo[3,4-b]pyridin-5-one] | 40 nM
Cc1cc2c(nc1N1CCC(Oc3ccc(F)cc3)CC1)CN(CCO)C2=O [Example 264, 2-(4-(4-Fluorophenoxy)piperidin-1-yl)-6-(2-hydroxyethyl)-3-methyl-6,7-dihydro-5H-pyrrolo[3,4-b]pyridin-5-one] | 36 nM
Cc1c(N2CCC(Oc3ccc4c(c3)COC4)CC2)nc2c(c1C)C(=O)N(CCO)C2 [Example 264A, 2-(4-((1,3-Dihydro-2-benzofuran-5-yl)oxy)piperidin-1-yl)-6-(2-hydroxyethyl)-3,4-dimethyl-6,7-dihydro-5H-pyrrolo[3,4-b]pyridin-5-one] | 38 nM
Cc1c(N2CCC(Oc3ccc4c(c3)C[C@H](O)C4)CC2)nc2c(c1C)C(=O)N(CCO)C2 [Example 264D, (R)-2-(4-((2-hydroxy-2,3-dihydro-1H-inden-5-yl)oxy)piperidin-1-yl)-6-(2-hydroxyethyl)-3,4-dimethyl-6,7-dihydro-5H-pyrrolo[3,4-b]pyridin-5-one] | 79 nM
Cc1c(N2CCC(Oc3ccc4c(c3)C[C@@H](O)C4)CC2)nc2c(c1C)C(=O)N(CCO)C2 [Example 264E, (S)-2-(4-((2-hydroxy-2,3-dihydro-1H-inden-5-yl)oxy)piperidin-1-yl)-6-(2-hydroxyethyl)-3,4-dimethyl-6,7-dihydro-5H-pyrrolo[3,4-b]pyridin-5-one] | 125 nM
Cc1c(N2CCC(Oc3ccccc3)CC2)nc2c(c1C)C(=O)N(CCO)C2 [Example 265, 6-(2-hydroxyethyl)-3,4-dimethyl-2-(4-phenoxypiperidin-1-yl)-6,7-dihydro-5H-pyrrolo[3,4-b]pyridin-5-one] | 46 nM
CCc1cc2c(nc1N1CCC(Oc3ccc4c(c3)OCC4)CC1)CN(CCO)C2=O [Example 265A, 2-(4-((2,3-dihydrobenzofuran-6-yl)oxy)piperidin-1-yl)-3-ethyl-6-(2-hydroxyethyl)-6,7-dihydro-5H-pyrrolo[3,4-b]pyridin-5-one] | 100 nM
Cc1c(N2CCC(OC[C@@]3(C)CC3(F)F)CC2)nc2c(c1C)C(=O)N(CCO)C2 [Example 265B, (R)-2-(4-((2,2-difluoro-1-methylcyclopropyl)methoxy)piperidin-1-yl)-6-(2-hydroxyethyl)-3,4-dimethyl-6,7-dihydro-5H-pyrrolo[3,4-b]pyridin-5-one] | 123 nM
Cc1c(N2CCC(OC[C@]3(C)CC3(F)F)CC2)nc2c(c1C)C(=O)N(CCO)C2 [Example 265C, (S)-2-(4-((2,2-difluoro-1-methylcyclopropyl)methoxy)piperidin-1-yl)-6-(2-hydroxyethyl)-3,4-dimethyl-6,7-dihydro-5H-pyrrolo[3,4-b]pyridin-5-one] | 41 nM
Cc1c(N2CCC(Oc3ccc4c(cnn4C)c3)CC2)nc2c(c1C)C(=O)N(CCO)C2 [Example 265D, 6-(2-hydroxyethyl)-3,4-dimethyl-2-(4-((1-methyl-1H-indazol-5-yl)oxy)piperidin-1-yl)-6,7-dihydro-5H-pyrrolo[3,4-b]pyridin-5-one] | 65 nM
Cc1c(N2CCC(Oc3ccc4c(c3)CCOC4)CC2)nc2c(c1C)C(=O)N(CCO)C2 [Example 265F, 6-(2-hydroxyethyl)-2-(4-(isochroman-6-yloxy)piperidin-1-yl)-3,4-dimethyl-6,7-dihydro-5H-pyrrolo[3,4-b]pyridin-5-one] | 46 nM
Cc1c(N2CCC(Oc3ccc(F)cc3)CC2)nc2c(c1C)C(=O)N(CCO)C2 [Example 266, 2-(4-(4-fluorophenoxy)piperidin-1-yl)-6-(2-hydroxyethyl)-3,4-dimethyl-6,7-dihydro-5H-pyrrolo[3,4-b]pyridin-5-one] | 105 nM
Cc1c(N2CCC(Oc3ccc4c(c3)OCC4)CC2)nc2c(c1C)C(=O)N(CCO)C2 [Example 266A, 2-(4-((2,3-dihydrobenzofuran-6-yl)oxy)piperidin-1-yl)-6-(2-hydroxyethyl)-3,4-dimethyl-6,7-dihydro-5H-pyrrolo[3,4-b]pyridin-5-one] | 44 nM
Cc1c(N2CCC(Oc3ccc4c(c3)COC4)CC2)nc2c(c1C)C(=O)N(CC(=O)O)C2 [Example 266B, 2-(2-(4-((1,3-dihydro-2-benzofuran-5-yl)oxy)piperidin-1-yl)-3,4-dimethyl-5-oxo-5,7-dihydro-6H-pyrrolo[3,4-b]pyridin-6-yl)acetic acid] | 53 nM
Cc1c(N2CCC(Oc3ccc4c(c3)COC4)CC2)nc2c(c1C)C(=O)N([C@H](C)CO)C2 [Example 266C, (R)-2-(4-((1,3-dihydro-2-benzofuran-5-yl)oxy)piperidin-1-yl)-6-(1-hydroxypropan-2-yl)-3,4-dimethyl-6,7-dihydro-5H-pyrrolo[3,4-b]pyridin-5-one] | 64 nM
Cc1c(N2CCC(Oc3ccc4c(c3)COC4)CC2)nc2c(c1C)C(=O)N([C@@H](C)CO)C2 [Example 266D, (S)-2-(4-((1,3-dihydro-2-benzofuran-5-yl)oxy)piperidin-1-yl)-6-(1-hydroxypropan-2-yl)-3,4-dimethyl-6,7-dihydro-5H-pyrrolo[3,4-b]pyridin-5-one] | 43 nM
CCc1cc2c(nc1N1CC[C@H](OCC3(C)CC3)[C@@H](F)C1)CN(CCO)C2=O [Example 266E, 3-ethyl-2-((3S,4S)-3-fluoro-4-((1-methylcyclopropyl)methoxy)piperidin-1-yl)-6-(2-hydroxyethyl)-6,7-dihydro-5H-pyrrolo[3,4-b]pyridin-5-one] | 159 nM
CCc1cc2c(nc1N1CCC(Oc3ccc4c(c3)CCOC4)CC1)CN(CCO)C2=O [Example 266F, 3-ethyl-6-(2-hydroxyethyl)-2-(4-(isochroman-6-yloxy)piperidin-1-yl)-6,7-dihydro-5H-pyrrolo[3,4-b]pyridin-5-one] | 57 nM
